Experimental data published in patent publication US9198431B2, “Use of N6-(2-hydroxyethyl)-adenosine in preparation of crop pesticide” (Zhejiang Subtropical Crops Research Institute, priority 2013, dated 2015).

Columns and labels:
Assay type in all cases: in vivo
diamondback moth larvae [1] = assay: Stomach poisoning (oral toxicity) of diamondback moth larvae; settings: for Average Corrected Death Rate (%), stomach poisoning: 96 h
Experimental: Test Insects: Artificial subculture breeding of diamondback moths collected at Xinqiao greenhouse vegetable field in Wenzhou was carried out in a thermostat illumination incubator and the second-instar larvae breeds of a consistent size and color were picked for tests.
(§1) Test Method: • Preparing N6-(2-hydroxyethyl)-adenosine solutions of various concentrations; • Diluting the 20% N6-(2-hydroxyethyl)-adenosine suspension to make solutions with 1000 mg/L, 800 mg/L, 600 mg/L, 400 mg/L, and 200 mg/L active ingredient concentrations, respectively, for testing the roles of N6-(2-hydroxyethyl)-adenosine in stomach poisoning of diamondback moth larvae. • Diluting the 20% N6-(2-hydroxyethyl)-adenosine suspending agent to make solutions with 300 mg/L, 250 mg/L, 200 mg/L, 150 mg/L and 100 mg/L active ingredient concentrations, respectively, to test the roles of N6-(2-hydroxyethyl)-adenosine in suppressing feeding and retarding development of diamondback moth larvae.
Cut healthy, fresh cabbage leaves in small pieces that are 7 cm in diameters. Smear these pieces with various spore suspensions and leave them to dry naturally. Repeat the smearing process 3 times, and then put the leaves in plastic Petri-dishes with tiny holes that are 2 cm in diameter. Cover the dishes with nylon membranes to keep the leaves fresh.
Pick out healthy indoor bred third-instar diamondback moth larvae of similar sizes with a writing brush, and inoculate them onto the cabbage leaves. Make 4 replicas of the treatments, each of which should contain 20 tested larvae. Cultivate the dishes in an incubator set to 25±1° C., 75˜80% relative humidity and 16 L:8D illumination. Observe and record the number of larvae that die of infection every day. Use 0.1% triton solution as a blank control and use the Abbott formula for correction of death rates. Corrected Death Rate (%)=[(Death Rate of the Treatment Group−Death Rate of the Control Group)/(1−Death Rate of the Control Group)]×100.
(§2) The results obtained were analyzed for significances of difference using Ducan's New Multiple Range Method. The various lowercase letters following the data in the same column indicate significant differences at a level of 0.05 level (P<0.05). The various capital letters following the data in the same column indicate significant differences at a level of 0.01 (P<0.01).

diamondback moth larvae [2] = assay: Selective antifeeding (feeding suppression), leaf disk dipping; settings: for Selective antifeeding rate: third-instar larvae
Experimental: as §1
(§3) Round leaf disk dipping method was employed in this test. Prepare leaf disks out of cabbage leaves with a round hole puncher (d=2 cm), and soak the disks in N6-(2-hydroxyethyl)-adenosine solutions with different concentrations for 30 seconds. Then, take the leaf disks out and drain the excessive solution with clean blotting paper to prepare them for treatments. Use 0.1% triton solution as a blank control.
Put a good-size piece of filter paper in a Petri-dish, and then put two processed and two control leaf disks into the same Petri-dish, which are arrayed in a cross fashion. Inoculate three third-instar diamondback moth larvae that have been subjected to 4-hour starvation treatments onto the leaf disks and seal the dish. Prepare 10 replicas for each treatment group. After 48 hours, pick five replicas with 0% death rate to measure the leaf areas that have been consumed by the larvae with a grid paper and calculate the average leaf consumption areas. Antifeeding Rate (%)=[(Leaf Consumption Area in the Control Group−Leaf Consumption Area in the Treatment Group)÷(Leaf Consumption Area in the Control Group+Leaf Consumption Area in the Treatment Group)]×100.

diamondback moth larvae [3] = assay: Non-selective antifeeding, leaf disk dipping; settings: third-instar larvae
Experimental: as §1, §3
Put a good-sized piece of filter paper in a Petri-dish, and then put two processed leaf disks in the same Petri-dish and another two control leaf disks in a different dish. Inoculate three third-instar diamondback moth larvae that have been subjected to 4-hour starvation treatments onto the leaf disks and seal the dish. Prepare 10 replicas for each treatment group. After 48 hours, pick five replicas with 0% death rate to measure the leaf areas that have been consumed by the larvae with a grid paper and calculate the average leaf consumption areas. Non-Selective Antifeeding Rate (%)=[(Leaf Consumption Area in the Control Group—Leaf Consumption Area in the Treatment Group)÷Leaf Consumption Area in the Control Group]×100.

diamondback moth larvae [4] = assay: Development retardation (weight gain inhibition) of diamondback moth larvae; settings: for Average Weight (10 Tested Larvae) (mg) Δ4d: weight gain
Experimental: as §1
Soak the cabbage leaves (7 cm in diameters) in the prepared solutions for 30 seconds, take the leaves out, leave them to dry, and then transfer the dried leaves to a Petri-dish (9 cm in diameter) cushioned with a wet filter paper. Inoculate 15 weighed third-instar diamondback moth larvae onto each Petri-dish. […] Prepare four replicas for each treatment group to determine the effects of various solutions in inhibiting the weight gain of the larvae.
Weight-Gain Inhibition Rate (%)=[(the Average Weight Gain of the Control Group−the Average Weight Gain of the Treatment Group)÷the Average Weight Gain of the Control Group]×100.
as §2

aphids = assay: Insecticidal activity on aphids; settings: experimental data omitted

OCCNc1ncnc2c1ncn2[C@@H]1O[C@H](CO)[C@@H](O)[C@H]1O [N6-(2-hydroxyethyl)-adenosine]
Average Corrected Death Rate (%), stomach poisoning (diamondback moth larvae [1]; 800 mg/L): 84.21%
Average Corrected Death Rate (%), stomach poisoning (diamondback moth larvae [1]; 1000 mg/L): 86.84%
Post-treatment death rates of the larvae (diamondback moth larvae [1]; 25-hour post-treatment, 1000 to 200 mg/L): below 30%
Lethal effect on diamondback moth (diamondback moth larvae [1]; in vivo): strong lethal effect
Selective antifeeding rate (diamondback moth larvae [2]; 200 mg/L, 48 hour): 71.30%
Selective antifeeding rate (diamondback moth larvae [2]; 250 mg/L, 48 hours): 83.47%
Selective antifeeding rate (diamondback moth larvae [2]; 300 mg/L, 48 hours): 83.82%
Feeding capacity of the tested larvae (FIGS. 2 and 3) (diamondback moth larvae [2]; 300, 250, 200, 150 and 100 mg/L): clear declines in their feeding capacity
Non-selective antifeeding rate (diamondback moth larvae [3]; 200 mg/L, 48 hour): 65.75%
Non-selective antifeeding rate (diamondback moth larvae [3]; 250 mg/L, 48 hours): 75.73%
Non-selective antifeeding rate (diamondback moth larvae [3]; 300 mg/L, 48 hours): 77.64%
Average Weight (10 Tested Larvae) (mg) Δ4d (diamondback moth larvae [4]; 100 mg/L): 4.13 mg
Average Weight (10 Tested Larvae) (mg) Δ4d (diamondback moth larvae [4]; 150 mg/L): 2.40 mg
Average Weight (10 Tested Larvae) (mg) Δ4d (diamondback moth larvae [4]; 200 mg/L): 1.33 mg
Average Weight (10 Tested Larvae) (mg) Δ4d (diamondback moth larvae [4]; 250 mg/L): 0.65 mg
Average Weight (10 Tested Larvae) (mg) Δ4d (diamondback moth larvae [4]; 300 mg/L): 0.48 mg
inhibition at 100 µg/mL (diamondback moth larvae [4]; Plutella xylostella, 72 h, 100 mg/L, 3 days after treatment, third-instar larvae, read-out: Weight Gain Inhibition Rate (%)): 18.3%
inhibition at 150 µg/mL (diamondback moth larvae [4]; Plutella xylostella, 72 h, 150 mg/L, 3 days after treatment, third-instar larvae, read-out: Weight Gain Inhibition Rate (%)): 52.5%
inhibition at 200 µg/mL (diamondback moth larvae [4]; Plutella xylostella, 72 h, 200 mg/L, 3 days after treatment, third-instar larvae, read-out: Weight Gain Inhibition Rate (%)): 73.8%
inhibition at 250 µg/mL (diamondback moth larvae [4]; Plutella xylostella, 72 h, 250 mg/L, 3 days after treatment, third-instar larvae, read-out: Weight Gain Inhibition Rate (%)): 87.1%
inhibition at 300 µg/mL (diamondback moth larvae [4]; Plutella xylostella, 72 h, 300 mg/L, 3 days after treatment, third-instar larvae, read-out: Weight Gain Inhibition Rate (%)): 90.6%
Insecticidal activity on aphids (aphids): able to kill aphids
